In patent US11420935B2, “Bicyclic compounds” (Vivace Therapeutics, Inc., priority 2019, dated 2022) one finds IC50 data, which are given here for 36 compounds.

Structures are written as SMILES. Like-named read-outs stand apart in the source and are kept apart here.

In general, IC50 refers to the concentration at which inhibition is half-maximal.

For the assay, the system named is 8×TBD luciferase reporter (YAP) in HEK293T cells. The assay is described as follows: YAP Reporter Assay (8×TBD firefly luciferase reporter). Format: cell-based. Conditions: Homo sapiens, HEK-293T. The method in brief:
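Stably transfected HEK293T cells (8×TBD firefly luciferase plus TK-renilla) were dosed with 10-point 1:3 dilutions from 3 μM final, quadruplicates, for 24 h at 37 °C. Dual-Glo read firefly and renilla luminescence; IC50 and maximal inhibition reported separately for each.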
Background: Reporter assays use an easily measured gene product as a stand-in for the process of interest.

The mark [1] stands for this setting: HEK293T cells stably transfected with 8×TBD luciferase reporter and pRLTK, 24-hr incubation, firefly luciferase activity, read-out: Firefly Luciferase IC50.
Setting [2] is: 24 h, read-out: Firefly Luciferase IC50 (μM).

In the case of `C[C@H](NC(=O)c1cnc2c(Oc3ccc(C(F)(F)F)cc3)cccc2c1)c1ccccn1` [Compound 19, N-[(1S)-1-(2-pyridyl)ethyl]-8-[4-(trifluoromethyl)phenoxy]quinoline-3-carboxamide], under setting [1], the half-inhibitory concentration (IC50) was under 0.1 µM. For `C[C@@H](NC(=O)c1ccc2c(Oc3ccc(C(F)(F)F)cc3)cccc2c1)C1CNC1` [Compound 96, N-[(1R)-1-(azetidin-3-yl)ethyl]-5-[4-(trifluoromethyl)phenoxy]naphthalene-2-carboxamide], the concentration for half-maximal inhibition (IC50) under setting [1] is under 0.1 µM. Same read-out and setting: then `CN(C#N)CCCNC(=O)c1ccc2c(Oc3ccc(C(F)(F)F)cc3)cccc2c1` [Compound 35, N-(3-(N-methylcyanamido)propyl)-5-(4-(trifluoromethyl)phenoxy)-2-naphthamide], with under 0.1 µM; and `COc1cc(Oc2ccc(C(F)(F)F)cc2)c2ncc(C(=O)NC(CO)c3ccccn3)cc2c1` (stereo not drawn) [Compound 118, N-(2-Hydroxy-1-(pyridin-2-yl)ethyl)-6-methoxy-8-(4-(trifluoromethyl)phenoxy)quinoline-3-carboxamide], with under 0.1 µM; and `C[C@@H](NC(=O)c1ccc2c(Oc3ccc(C(F)(F)F)cc3)cccc2c1)C1CN(C2CC2)C1` [Compound 137, (R)—N-(1-(1-cyclopropylazetidin-3-yl)ethyl)-5-(4-(trifluoromethyl)phenoxy)-2-naphthamide], with under 0.1 µM. Turning to `COc1cc(Oc2ccc(C(F)(F)F)cc2)c2ncc(C(=O)NC(C)C)cc2c1` [Compound 113, N-Isopropyl-6-methoxy-8-(4-(trifluoromethyl)phenoxy)quinoline-3-carboxamide], under setting [2], the IC50 is under 0.1 µM. `C#CCCNC(=O)c1ccc2c(Oc3ccc(C(F)(F)F)cc3)cccc2c1` [Compound 21, N-(but-3-yn-1-yl)-5-(4-(trifluoromethyl)phenoxy)-2-naphthamide]: the half-maximal inhibitory concentration (IC50) under setting [1] is under 0.1 µM. On the same count and under the same terms, then `C[C@H](NC(=O)c1ccc2c(Oc3ccc(C(F)(F)F)cc3)cccc2c1)c1ccccc1Cl` [Compound 83, (S)—N-(1-(2-chlorophenyl)ethyl)-5-(4-(trifluoromethyl)phenoxy)-2-naphthamide], with under 0.1 µM; and `C[C@H](NC(=O)c1ccc2c(Oc3ccc(C(F)(F)F)cc3)cccc2c1)c1ncc[nH]1` [Compound 63, (S)—N-(1-(1H-imidazol-2-yl)ethyl)-5-(4-(trifluoromethyl)phenoxy)-2-naphthamide], with 0.1 to 1 µM; and `C[C@H](NC(=O)c1ccc2c(Oc3ccc(C(F)(F)F)cc3)cccc2c1)c1nnnn1C` [Compound 55, (S)—N-(1-(1-methyl-1H-tetrazol-5-yl)ethyl)-5-(4-(trifluoromethyl)phenoxy)-2-naphthamide], with 0.1 to 1 µM. As for `C[C@H](NC(=O)c1cnc2c(Oc3ccc(C(F)(F)F)cc3)cccc2c1)c1cccc2nc[nH]c12` [Compound 104, (S)—N-(1-(1H-benzo[d]imidazol-7-yl)ethyl)-8-(4-(trifluoromethyl)phenoxy)quinoline-3-carboxamide], the concentration for half-maximal inhibition (IC50) under setting [1] was under 0.1 µM. In the case of `C[C@H](CCNCC(F)F)NC(=O)c1ccc2c(Oc3ccc(C(F)(F)F)cc3)cccc2c1` [Compound 149, (R)-N-(4-((2,2-difluoroethyl)amino)butan-2-yl)-5-(4-(trifluoromethyl)phenoxy)-2-naphthamide], under setting [1], the IC50 is under 0.1 µM.

Turning to `CNCCCNC(=O)c1ccc2c(Oc3ccc(C(F)(F)F)cc3)cccc2c1` [Compound 34, N-(3-(methylamino)propyl)-5-(4-(trifluoromethyl)phenoxy)-2-naphthamide], under setting [1], the 50% inhibitory concentration (IC50) was under 0.1 µM. `CC#C[C@@H](C)NC(=O)c1ccc2c(Oc3ccc(C(F)(F)F)cc3)cccc2c1` [Compound 90, N-[(1R)-1-methylbut-2-ynyl]-5-[4-(trifluoromethyl)phenoxy]naphthalene-2-carboxamide]: the IC50 under setting [1] was under 0.1 µM.

As for `C[C@H](NC(=O)c1ccc2c(Oc3ccc(C(F)(F)F)cc3)cccc2c1)c1cc(N)ccn1` [Compound 71, (S)—N-(1-(4-aminopyridin-2-yl)ethyl)-5-(4-(trifluoromethyl)phenoxy)-2-naphthamide], the IC50 under setting [1] is 0.1 to 1 µM.

In the case of `C[C@@H](NC(=O)c1ccc2c(Oc3ccc(C(F)(F)F)cc3)cccc2c1)c1cn(C)cn1` [Compound 91, N-[(1R)-1-(1-methylimidazol-4-yl)ethyl]-5-[4-(trifluoromethyl)phenoxy]naphthalene-2-carboxamide], the half-maximal inhibitory concentration (IC50) under setting [1] is under 0.1 µM. Still for that read-out and setting: then `C[C@H](CN)NC(=O)c1ccc2c(Oc3ccc(C(F)(F)F)cc3)cccc2c1` [Compound 107, (R)—N-(1-aminopropan-2-yl)-5-(4-(trifluoromethyl)phenoxy)-2-naphthamide], with 0.1 to 1 µM. On to `C[C@@H](NC(=O)c1ccc2c(Oc3ccc(C(F)(F)F)cc3)cccc2c1)C1CN(C)C1` [Compound 126, (R)—N-(1-(1-methylazetidin-3-yl)ethyl)-5-(4-(trifluoromethyl)phenoxy)-2-naphthamide], for which the IC50 under setting [1] lay within 0.1 to 1 µM. Take `C[C@@H](NC(=O)c1cnc2c(Oc3ccc(C(F)(F)F)cc3)cccc2c1)c1ccccn1` [Compound 17, N-[(1R)-1-(2-pyridyl)ethyl]-8-[4-(trifluoromethyl)phenoxy]quinoline-3-carboxamide]: the half-inhibitory concentration (IC50) under setting [1] fell in the range of 0.1 to 1 µM. With `O=C(N[C@@H](CCO)c1ccccn1)c1ccc2c(Oc3ccc(C(F)(F)F)cc3)cccc2c1` [Compound 110, (S)—N-(3-hydroxy-1-(pyridin-2-yl)propyl)-5-(4-(trifluoromethyl)phenoxy)-2-naphthamide], the IC50 under setting [1] was under 0.1 µM. In the case of `C[C@H](CO)NC(=O)c1cnc2c(Oc3ccc(C(F)(F)F)cc3)cc(F)c(F)c2c1` [Compound 102, (R)-5,6-difluoro-N-(1-hydroxypropan-2-yl)-8-(4-(trifluoromethyl)phenoxy)quinoline-3-carboxamide], the IC50 under setting [1] was under 0.1 µM.

Regarding `CC(C)NC(=O)c1ccc2c(Oc3ccc(Cl)c(Cl)c3)cccc2c1` [Compound 3, 5-(3,4-dichlorophenoxy)-N-isopropyl-naphthalene-2-carboxamide], the IC50 under setting [2] was under 0.1 µM. `C[C@@H](NC(=O)c1ccc2c(Oc3ccc(C(F)(F)F)cc3)cccc2c1)C1CCN(CC(F)F)CC1` [Compound 162, (R)-N-(1-(1-(2,2-difluoroethyl)piperidin-4-yl)ethyl)-5-(4-(trifluoromethyl)phenoxy)-2-naphthamide]: under setting [1], the IC50 lay within 0.1 to 1 µM. Regarding `O=C(NC(CO)Cc1ccccn1)c1ccc2c(Oc3ccc(C(F)(F)F)cc3)cccc2c1` (stereo not drawn) [Compound 80, N-[1-(hydroxymethyl)-2-(2-pyridyl)ethyl]-5-[4-(trifluoromethyl)phenoxy]naphthalene-2-carboxamide], the IC50 under setting [1] is under 0.1 µM. Consider `CS(=O)(=O)NC(=O)c1ccc2c(Oc3ccc(Cl)c(Cl)c3)cccc2c1` [Compound 6, 5-(3,4-dichlorophenoxy)-N-(methylsulfonyl)-2-naphthamide], for which, under setting [1], the IC50 was under 0.1 µM. Take `C[C@H](CCO)NC(=O)c1ccc2c(Oc3ccc(C(F)(F)F)cc3)cccc2c1` [Compound 114, (R)—N-(4-hydroxybutan-2-yl)-5-(4-(trifluoromethyl)phenoxy)-2-naphthamide]: the concentration for half-maximal inhibition (IC50) under setting [1] was under 0.1 µM.

For `C[C@@H](NC(=O)c1ccc2c(Oc3ccc(C(F)(F)F)cc3)cccc2c1)C1CCN(CCF)CC1` [Compound 154, (R)-N-(1-(1-(2-fluoroethyl)piperidin-4-yl)ethyl)-5-(4-(trifluoromethyl)phenoxy)-2-naphthamide], the IC50 under setting [1] lay in the range of 0.1 to 1 µM. Take `COc1cc(Oc2ccc(C(F)(F)F)cc2)c2ncc(C(=O)N[C@H](C)CO)cc2c1` [Compound 116, (R)—N-(1-hydroxypropan-2-yl)-6-methoxy-8-(4-(trifluoromethyl)phenoxy)quinoline-3-carboxamide]: the 50% inhibitory concentration (IC50) under setting [1] was under 0.1 µM. Consider `C[C@H](NC(=O)c1ccc2c(Oc3ccc(C(F)(F)F)cc3)cccc2c1)C1COC1` [Compound 41, (S)—N-(1-(oxetan-3-yl)ethyl)-5-(4-(trifluoromethyl)phenoxy)-2-naphthamide], for which the IC50 under setting [1] was under 0.1 µM. Take `C[C@@H](CCO)NC(=O)c1ccc2c(Oc3ccc(C(F)(F)F)cc3)cccc2c1` [Compound 115, (S)—N-(4-hydroxybutan-2-yl)-5-(4-(trifluoromethyl)phenoxy)-2-naphthamide]: the 50% inhibitory concentration (IC50) under setting [1] was under 0.1 µM. Regarding `CS(=O)(=O)NC(=O)c1ccc2c(Oc3ccc(C(F)(F)F)cc3)cccc2c1` [Compound 5, N-(methylsulfonyl)-5-(4-(trifluoromethyl)phenoxy)-2-naphthamide], the IC50 under setting [1] is under 0.1 µM.

Regarding `C[C@@H](NC(=O)c1ccc2c(Oc3ccc(C(F)(F)F)cc3)cccc2c1)C1CN(CC(F)F)C1` [Compound 125, (R)—N-(1-(1-(2,2-difluoroethyl)azetidin-3-yl)ethyl)-5-(4-(trifluoromethyl)phenoxy)-2-naphthamide], under setting [1], the IC50 is under 0.1 µM. The same measure, in the same setting: in the case of `O=C(NC(CCO)CCO)c1ccc2c(Oc3ccc(C(F)(F)F)cc3)cccc2c1` [Compound 121, N-(1,5-dihydroxypentan-3-yl)-5-(4-(trifluoromethyl)phenoxy)-2-naphthamide] it was under 0.1 µM; in that of `CC(C)NC(=O)c1ccc2c(Oc3ccc(C(F)(F)F)cc3F)cccc2c1` [Compound 84, 5-(2-fluoro-4-(trifluoromethyl)phenoxy)-N-isopropyl-2-naphthamide], under 0.1 µM.

Turning to `C[C@@H](NC(=O)c1ccc2c(Oc3ccc(C(F)(F)F)cc3)cccc2c1)c1cccc2ccc(=O)[nH]c12` [Compound 98, N-[(1R)-1-(2-oxo-1H-quinolin-8-yl)ethyl]-5-[4-(trifluoromethyl)phenoxy]naphthalene-2-carboxamide], under setting [1], the 50% inhibitory concentration (IC50) was under 0.1 µM. Same read-out and setting: then `C[C@@H](CCN)NC(=O)c1ccc2c(Oc3ccc(C(F)(F)F)cc3)cccc2c1` [Compound 111, (S)—N-(4-aminobutan-2-yl)-5-(4-(trifluoromethyl)phenoxy)-2-naphthamide], with under 0.1 µM.
